The record followed here is patent US20080200448A1, “New Pyridine Analogues VIII 518” (ASTRAZENECA AB, priority 2007, published 2008).

This assay deals with T1, P2Y12 receptor (Homo sapiens, UniProt Q9H244).
T1 construct: expressed in transfected cells; host or cells: CHO cells (membrane preparation)
T1 sequence (Q9H244 whole entry): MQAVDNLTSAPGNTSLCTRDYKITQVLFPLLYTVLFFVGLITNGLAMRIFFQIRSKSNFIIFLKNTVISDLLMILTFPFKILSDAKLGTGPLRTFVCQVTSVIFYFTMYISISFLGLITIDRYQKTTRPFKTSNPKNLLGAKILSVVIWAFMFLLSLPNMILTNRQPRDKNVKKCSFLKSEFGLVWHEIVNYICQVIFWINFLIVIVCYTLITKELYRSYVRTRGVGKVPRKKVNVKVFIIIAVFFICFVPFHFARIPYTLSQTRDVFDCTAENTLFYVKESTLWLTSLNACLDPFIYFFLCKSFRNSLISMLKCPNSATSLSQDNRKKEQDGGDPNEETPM
Description: Functional inhibition of 2-Me-S-ADP induced P2Y12 signalling (35S-GTPγS binding, cell membranes). The class given is biochemical. Particulars: 35S-GTPγS assay, membranes, EC80 concentration of 2-methyl-thio-adenosine diphosphate, 30° C. for 45 min; read-out: GTPγS (IC50 μM). The method in brief:
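Membranes (5 μg) from P2Y12-transfected CHO cells in pH 7.4 HEPES buffer with 10 μM GDP and saponin were stimulated with an EC80 of 2-methyl-thio-ADP plus compound and ^35S-GTPγS for 45 min at 30° C. Filter-retained ^35S-GTPγS was counted, normalised between agonist and no-agonist activity, and IC50 taken from a four-parameter fit.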
In general terms: GTPγS is a poorly hydrolysed GTP analogue; its binding reports G protein activation.
On to `CCSC(=O)c1cc(C#N)c(N2CCC(C(=O)NS(=O)(=O)Cc3ccc(C)cc3)CC2)nc1CN1CCCC1=O` [Example 98, S-Ethyl 5-cyano-6-(4-{[(4-methylbenzyl)sulfonyl]carbamoyl}piperidin-1-yl)-2-[(2-oxopyrrolidin-1-yl)methyl]pyridine-3-carbothioate], for which the IC50 (commonly the point on the concentration scale where inhibition reaches its midpoint) came out at 4.53 µM.

Consider `CC(C)OC(=O)c1cc(C#N)c(N2CCC(C(=O)NS(=O)(=O)Cc3ccc([Si](C)(C)C)cc3)CC2)nc1CN1CCCC1=O` [Example 99, Isopropyl 5-cyano-2-[(2-oxopyrrolidin-1-yl)methyl]-6-[4-({[4-(trimethylsilyl)benzyl]sulfonyl}carbamoyl)piperidin-1-yl]nicotinate], for which the IC50 came to 0.497 µM.

With `CCOC(=O)c1cc(C#N)c(N2CCC(C(=O)NS(=O)(=O)Cc3ccc([Si](C)(C)C)cc3)CC2)nc1CN1CCCC1=O` [Example 100, Ethyl 5-cyano-2-[(2-oxopyrrolidin-1-yl)methyl]-6-[4-({[4-(trimethylsilyl)benzyl]sulfonyl}carbamoyl)piperidin-1-yl]nicotinate], the IC50 came to 0.138 µM.

On to `CCOC(=O)c1cc(C#N)c(N2CCC(C(=O)NS(=O)(=O)Cc3ccc(SC(F)(F)F)cc3)CC2)nc1CN1CCCCC1=O` [Example 101, Ethyl 5-cyano-2-[(2-oxopiperidin-1-yl)methyl]-6-{4-[({4-[(trifluoromethyl)thio]benzyl}sulfonyl)carbamoyl]piperidin-1-yl}nicotinate], for which the IC50 turned out to be 0.166 µM.

With `CCOC(=O)c1cc(C#N)c(N2CCC(C(=O)NS(=O)(=O)Cc3ccc([Si](C)(C)C)cc3)CC2)nc1CN1CCCCC1=O` [Example 102, Ethyl 5-cyano-2-[(2-oxopiperidin-1-yl)methyl]-6-[4-({[4-(trimethylsilyl)benzyl]sulfonyl}carbamoyl)piperidin-1-yl]nicotinate], the IC50 stood at 0.934 µM.

On to `CCOC(=O)c1cc(C#N)c(N2CCC(C(=O)NS(=O)(=O)Cc3ccc(C(C)(C)C)cc3)CC2)nc1CN1CCCCC1=O` [Example 103, Ethyl 6-(4-{[(4-tert-butylbenzyl)sulfonyl]carbamoyl}piperidin-1-yl)-5-cyano-2-[(2-oxopiperidin-1-yl)methyl]nicotinate], for which the IC50 was found to be 0.376 µM.

Consider `CCOC(=O)c1cc(Cl)c(N2CCC(C(=O)NS(=O)(=O)Cc3ccc(Cl)cc3)CC2)nc1SCCNC(C)=O` [Example 104, Ethyl 2-[(2-acetamidoethyl)thio]-5-chloro-6-(4-{[(4-chlorobenzyl)sulfonyl]carbamoyl}piperidin-1-yl)nicotinate], for which the IC50 came to 0.057 µM.

For `CCOC(=O)c1cc(Cl)c(N2CCC(C(=O)NS(=O)(=O)Cc3ccccc3)CC2)nc1SCCNC(C)=O` [Example 105, Ethyl 2-[(2-acetamidoethyl)thio]-6-{4-[(benzylsulfonyl)carbamoyl]piperidin-1-yl}-5-chloronicotinate], the IC50 worked out at 0.048 µM.

With `CCOC(=O)CCCc1nc(N2CCC(C(=O)NS(=O)(=O)Cc3ccccc3)CC2)c(C#N)cc1C(=O)OCC` [Example 106, Ethyl 6-{4-[(benzylsulfonyl)carbamoyl]piperidin-1-yl}-5-cyano-2-(4-ethoxy-4-oxobutyl)nicotinate], the IC50 came to 0.066 µM.

For the compound `CCOC(=O)CCc1nc(N2CCC(C(=O)NS(=O)(=O)Cc3ccccc3)CC2)c(C#N)cc1C(=O)OCC` [Example 107, Ethyl 6-{4-[(benzylsulfonyl)carbamoyl]piperidin-1-yl}-5-cyano-2-(3-ethoxy-3-oxopropyl)nicotinate], the IC50 stood at 0.056 µM.

Take `CCOC(=O)CSc1nc(N2CCC(C(=O)NS(=O)(=O)Cc3ccc(F)cc3Cl)CC2)c(C#N)cc1C(=O)OCC` [Example 108, Ethyl 6-(4-{[(2-chloro-4-fluorobenzyl)sulfonyl]carbamoyl}piperidin-1-yl)-5-cyano-2-[(2-ethoxy-2-oxoethyl)thio]nicotinate]: the IC50 came to 0.072 µM.

With `CCOC(=O)CSc1nc(N2CCC(C(=O)NS(=O)(=O)Cc3ccc(Cl)cc3Cl)CC2)c(C#N)cc1C(=O)OCC` [Example 109, Ethyl 5-cyano-6-(4-{[(2,4-dichlorobenzyl)sulfonyl]carbamoyl}piperidin-1-yl)-2-[(2-ethoxy-2-oxoethyl)thio]nicotinate], the IC50 is 0.062 µM.

Regarding `CCOC(=O)CSc1nc(N2CCC(C(=O)NS(=O)(=O)CC3CCCC3)CC2)c(C#N)cc1C(=O)OCC` [Example 110, Ethyl 5-cyano-6-(4-{[(cyclopentylmethyl)sulfonyl]carbamoyl}piperidin-1-yl)-2-[(2-ethoxy-2-oxoethyl)thio]nicotinate], the IC50 is 0.053 µM.

As for `CCOC(=O)c1cc(C#N)c(N2CCC(C(=O)NS(=O)(=O)Cc3ccccc3)CC2)nc1SCC(=O)OC(C)C` [Example 111, Ethyl 6-{4-[(benzylsulfonyl)carbamoyl]piperidin-1-yl}-5-cyano-2-[(2-isopropoxy-2-oxoethyl)thio]nicotinate], the IC50 is 0.016 µM.

Turning to `CCOC(=O)c1cc(C#N)c(N2CCC(C(=O)NS(=O)(=O)Cc3ccccc3)CC2)nc1CCC(C)=O` [Example 112, Ethyl 6-{4-[(benzylsulfonyl)carbamoyl]piperidin-1-yl}-5-cyano-2-(3-oxobutyl)nicotinate], the IC50 is 0.022 µM.

As for `CCOC(=O)c1cc(C#N)c(N2CCC(C(=O)NS(=O)(=O)Cc3ccccc3)CC2)nc1OCCn1cccc1` [Example 113, Ethyl 6-{4-[(benzylsulfonyl)carbamoyl]piperidin-1-yl}-5-cyano-2-[2-(1H-pyrrol-1-yl)ethoxy]nicotinate], the half-inhibitory concentration (IC50) was determined as 0.05 µM.

On to `CCOC(=O)c1cc(C#N)c(N2CCC(C(=O)NS(=O)(=O)Cc3ccccc3)CC2)nc1OCCN1CCCC1=O` [Example 114, Ethyl 6-{4-[(benzylsulfonyl)carbamoyl]piperidin-1-yl}-5-cyano-2-[2-(2-oxopyrrolidin-1-yl)ethoxy]nicotinate], for which the IC50 is 0.027 µM.

For `CCOC(=O)c1cc(C#N)c(N2CCC(C(=O)NS(=O)(=O)Cc3ccccc3)CC2)nc1CSCC(=O)O` [Example 115, ({[6-{4-[(Benzylsulfonyl)carbamoyl]piperidin-1-yl}-5-cyano-3-(ethoxycarbonyl)pyridin-2-yl]methyl}thio)acetic acid], the IC50 was found to be 0.035 µM.

On to `CCOC(=O)c1cc(C#N)c(N2CCC(C(=O)NS(=O)(=O)Cc3ccccc3)CC2)nc1CSCc1nccn1C` [Example 116, Ethyl 6-{4-[(benzylsulfonyl)carbamoyl]piperidin-1-yl}-5-cyano-2-({[(1-methyl-1H-imidazol-2-yl)methyl]thio}methyl)nicotinate], for which the half-inhibitory concentration (IC50) is 1.05 µM.

Regarding `CCOC(=O)c1cc(C#N)c(N2CCC(C(=O)NS(=O)(=O)Cc3ccccc3)CC2)nc1CSc1nccs1` [Example 117, Ethyl 6-{4-[(benzylsulfonyl)carbamoyl]piperidin-1-yl}-5-cyano-2-[(1,3-thiazol-2-ylthio)methyl]nicotinate], the IC50 was found to be 0.035 µM.

In the case of `CCOC(=O)c1cc(C#N)c(N2CCC(C(=O)NS(=O)(=O)Cc3ccccc3)CC2)nc1CSc1nccn1C` [Example 118, Ethyl 6-{4-[(benzylsulfonyl)carbamoyl]piperidin-1-yl}-5-cyano-2-{[(1-methyl-1H-imidazol-2-yl)thio]methyl}nicotinate], the IC50 was determined as 0.052 µM.

Regarding `CCOC(=O)c1cc(C#N)c(N2CCC(C(=O)NS(=O)(=O)Cc3ccccc3)CC2)nc1CSCCC(=O)OC` [Example 119, Ethyl 6-{4-[(benzylsulfonyl)carbamoyl]piperidin-1-yl}-5-cyano-2-{[(3-methoxy-3-oxopropyl)thio]methyl}nicotinate], the half-maximal inhibitory concentration (IC50) was found to be 0.042 µM.

`CCOC(=O)c1cc(C#N)c(N2CCC(C(=O)NS(=O)(=O)Cc3ccccc3)CC2)nc1O[C@@H](C)C(=O)OCC` [Example 120, Ethyl 6-{4-[(benzylsulfonyl)carbamoyl]piperidin-1-yl}-5-cyano-2-[(1S)-2-ethoxy-1-methyl-2-oxoethoxy]nicotinate]: the IC50 stood at 0.019 µM.

In the case of `CCOC(=O)c1cc(C#N)c(N2CCC(C(=O)NS(=O)(=O)Cc3ccccc3)CC2)nc1OCCCC(C)=O` [Example 121, Ethyl 6-{4-[(benzylsulfonyl)carbamoyl]piperidin-1-yl}-5-cyano-2-[(4-oxopentyl)oxy]nicotinate], the half-maximal inhibitory concentration (IC50) worked out at 0.017 µM.

With `CCOC(=O)CSCc1nc(N2CCC(C(=O)NS(=O)(=O)Cc3ccccc3)CC2)c(C#N)cc1C(=O)OCC` [Example 122, Ethyl 6-{4-[(benzylsulfonyl)carbamoyl]piperidin-1-yl}-5-cyano-2-{[(2-ethoxy-2-oxoethyl)thio]methyl}nicotinate], the IC50 was 0.077 µM.

Take `CCOC(=O)c1cc(C#N)c(N2CCC(C(=O)NS(=O)(=O)Cc3ccccc3)CC2)nc1CSCC(=O)N(C)C` [Example 123, Ethyl 6-{4-[(benzylsulfonyl)carbamoyl]piperidin-1-yl}-5-cyano-2-({[2-(dimethylamino)-2-oxoethyl]thio}methyl)nicotinate]: the IC50 is 0.057 µM.

Turning to `CCOC(=O)c1cc(C#N)c(N2CCC(C(=O)NS(=O)(=O)Cc3ccccc3)CC2)nc1SCC(=O)N1CCC1` [Example 124, Ethyl 2-[(2-azetidin-1-yl-2-oxoethyl)thio]-6-{4-[(benzylsulfonyl)carbamoyl]piperidin-1-yl}-5-cyanonicotinate], the IC50 is 0.013 µM.

As for `CCOC(=O)c1cc(C#N)c(N2CCC(C(=O)NS(=O)(=O)Cc3ccccc3)CC2)nc1OCC(=O)N(C)C` [Example 125, Ethyl 6-{4-[(benzylsulfonyl)carbamoyl]piperidin-1-yl}-5-cyano-2-[2-(dimethylamino)-2-oxoethoxy]nicotinate], the IC50 is 0.065 µM.

For `CCOC(=O)CSc1nc(N2CCC(C(=O)NS(=O)(=O)Cc3ccccc3)CC2)c(C#N)cc1C(=O)OCC` [Example 126, Ethyl 6-{4-[(benzylsulfonyl)carbamoyl]piperidin-1-yl}-5-cyano-2-[(2-ethoxy-2-oxoethyl)thio]nicotinate], the IC50 worked out at 0.011 µM.
